Article PMC5159239 (Cell host & microbe, 2016)

B1: RIG-I-QQ (natural protein)
chain: MTTEQRRSLQAFQDYIRKTLDPTYILSYMAPWFREEEVQYIQAEKNNKGPMEAATLFLKFLLELQEEGWFRGFLDALDHAGYSGLYEAIESWDFKKIEKLEEYRLLLKRLQPEFKTRIIPTDIISDLSECLINQECEEILQICSTKGMMAGAEKLVECLLRSDKENWPKTLKLALEKERNKFSELWIVEKGIKDVETEDLEDKMETSDIQIFYQEDPECQNLSENSCPPSEVSDTNLYSPFKPRNYQLELALPAMKGKNTIICAPTGCGKTFVSLLICEHHLKKFPQGQKGKVVFFANQIPVYEQQKSVFSKYFERHGYRVTGISGATAENVPVEQIVENNDIIILTPQILVNNLKKGTIPSLSIFTLMIFDECHNTSKQHPYNMIMFNYLDQKLGGSSGPLPQVIGLTASVGVGDAKNTDEALDYICKLCASLDASVIATVKHNLEELEQVVYKPQKFFRKVESRISDKFKYIIAQLMRDTESLAKRICKDLEQLSQIQNREFGTQKYEQWIVTVQKACMVFQMPDKDEESRICKALFLYTSHLRKYQDALIISEHARMKDALDYLKDFFSNVRAAGFDEIEQDLTQRFEEKLQELESVSRDPSNENPKLEDLCFILQEEYHLNPETITILFVKTRALVDALKNWIEGNPKLSFLKPGILTGRGKTNQNTGMTLPAQKCILDAFKASGDHNILIATSVADEGIDIAQCNLVILYEYVGNVIKMIQTRGRGRARGSKCFLLTSNAGVIEKEQINMYKEKMMNDSILRLQTWDEAVFREKILHIQTHEKFIRDSQEKPKPVPDKENKKLLCRKCKALACYTADVRVIEECHYTVLGDAFKECFVSRPHPKPKQFSSFEKRAKIFCARQNCSHDWGIHVKYKTFEIPVIKIESFVVEDIATGVQTLYSKWKDFHFEKIPFDPAEMSK

Columns and labels:
UL37C (571-1123) = UL37C (571-1123) (Human alphaherpesvirus 1 strain 17, UniProt P10221); assay: tandem mass spectrometry of cysteine labelling; type: binding; conditions: covalent at C819; 45 min; also tested at 1 µM
SEC = target: the molecule itself; assay: SEC

Chain of UL37C (571-1123) (P10221 571-1123): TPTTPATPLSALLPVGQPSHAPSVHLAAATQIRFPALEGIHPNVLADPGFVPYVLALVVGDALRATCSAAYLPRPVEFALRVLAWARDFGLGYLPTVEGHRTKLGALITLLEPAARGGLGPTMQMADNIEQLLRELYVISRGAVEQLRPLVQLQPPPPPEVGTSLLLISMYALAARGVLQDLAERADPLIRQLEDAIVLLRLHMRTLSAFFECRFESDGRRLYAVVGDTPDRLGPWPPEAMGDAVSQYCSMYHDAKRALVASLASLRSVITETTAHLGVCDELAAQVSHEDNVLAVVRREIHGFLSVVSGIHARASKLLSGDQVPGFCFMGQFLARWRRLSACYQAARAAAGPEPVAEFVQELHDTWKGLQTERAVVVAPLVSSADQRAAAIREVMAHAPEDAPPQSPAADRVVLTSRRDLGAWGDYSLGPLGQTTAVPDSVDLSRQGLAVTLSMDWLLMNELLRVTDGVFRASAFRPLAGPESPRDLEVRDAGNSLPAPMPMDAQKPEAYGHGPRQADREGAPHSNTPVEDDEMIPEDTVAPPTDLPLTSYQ

Row | Molecule | % C819 labelled at 10 μM (UL37C (571-1123)) | binding result (SEC)
1 | O=C(CCl)NCO [2-Chloro-N-(hydroxymethyl)acetamide] | 42.5% | –
2 | B1 | – | binds
